Measurements reported in patent US7932290B2, “Method for the treatment of metabolic disorders” (Wellstat Biologics Corporation, priority 2003, dated 2011).
Values belong to the molecule of their own block, whether it stands above or below them.

How the values were obtained:
db/db mice = assay: Antidiabetic effects in db/db mice, Example B (2 weeks daily oral dosing); assay type: in vivo, mouse; details: for Glucose (% of Control) / Glucose: 2 weeks; for Glucose: nonfasting; for Free Fatty Acids ± SEM / Triglycerides ± SEM: serum, 2 weeks daily oral, dose not given in Table 17 (see Table 16)
Excerpt: db/db mice have a defect in leptin signaling, leading to hyperphagia, obesity and diabetes. Moreover, unlike ob/ob mice on a C57BL/6J background, db/db mice on a C57BL/KS background undergo failure of their insulin-producing pancreatic islet cells, resulting in progression from hyperinsulinemia (associated with peripheral insulin resistance) to hypoinsulinemic diabetes.
Male obese (db/db homozygote) C57BL/Ksola mice approximately 8 weeks of age, were obtained from Jackson Labs (Bar Harbor, Me.) and randomly assigned into groups of 5-7 animals such that the body weights (50-55 g) and serum glucose levels (≧300 mg/dl in fed state) were similar between groups; male lean (db/+heterozygote) mice served as cohort controls. A minimum of 7 days was allowed for adaptation after arrival. All animals were maintained under controlled temperature (23° C.), relative humidity (50±5%) and light (7:00-19:00), and allowed free access to standard chow (Formulab Diet 5008, Quality Lab Products, Elkridge, Md.) and water.
Treatment cohorts were given daily oral doses of Vehicle (1% hydroxypropylmethylcellulose), Compounds BI, CE, BT, BV, […] or Fenofibrate for 2 weeks. At the end of the treatment period 100 μl of venous blood was withdrawn in a heparinized capillary tube from the retro-orbital sinus of db/db mice for serum chemistry analysis.

[1] = tested on: male ob/ob mouse model of Type II diabetes; assay: Antidiabetic effects in ob/ob mice (serum chemistry after 2 weeks daily oral dosing); assay type: in vivo; design: key to Glucose ± SEM: serum glucose in mg/dl; Triglycerides ± SEM / Free Fatty Acids ± SEM: unit not given here; details: for Free Fatty Acids ± SEM / Triglycerides ± SEM / Glucose ± SEM: 60 mg/kg; for Glucose / Glucose (% of Control): 60 mg/kg daily oral, 2 weeks; for Glucose ± SEM: Table 15
Experimental: Obese (ob/ob) mice have a defect in the protein leptin, a regulator of appetite and fuel metabolism, leading to hyperphagia, obesity and diabetes.
Male obese (ob/ob homozygote) C57BL/6J mice, approximately 8 weeks of age, were obtained from Jackson Labs (Bar Harbor, Me.) and randomly assigned into groups of 5 animals each such that the body weights (45-50 g) and serum glucose levels (≧300 mg/dl in fed state) were similar between groups. A minimum of 7 days was allowed for adaptation after arrival. All animals were maintained under controlled temperature (23° C.), relative humidity (50±5%) and light (7:00-19:00), and allowed free access to standard chow (Formulab Diet 5020 Quality Lab Products, Elkridge, Md.) and water.
Treatment cohorts were given daily oral doses of vehicle (1% hydroxypropyl-methylcellulose), Compounds BI, CF, CA, CB, CC, or CD for 2 weeks. At the end of the treatment period 100 μl of venous blood was withdrawn in a heparinized capillary tube from the retro-orbital sinus of ob/ob mice for serum chemistry analysis.

[2] = tested on: Human PPARγ LBD fusion protein; assay: Transcription activation potential, GAL4 luciferase reporter in C3A cells; assay type: cell-based
Experimental: Cells were seeded in 24 well plates the day prior to transfection at 5×10^4−2×10^5 cells/well, depending upon cell type. Cells were transfected using Lipofectamine 2000 reagent from Invitrogen. A total of 0.8 μg DNA/well was added to 50 μL of Optimem Reduced Serum media (serum free; Gibco). Lipofectamine 2000 was added (2.5 μL/well) to another tube containing 50 μL of Optimem media. Plasmid DNA was added at a ratio of 4:3 (reporter:activator); where appropriate, salmon sperm DNA was substituted for activator expressing plasmid. […] DNA constructs containing the mouse PPARα or PPARγ LBD fused to the GAL4 DNA binding domain were also used. The two solutions were incubated at room temperature for 5 min, and then combined. The combined solution was incubated at room temperature for approximately 30 min. Cells were washed once with PBS, and 100 μL of transfection mix added to each well. Plates were incubated at 37° C. in a 5% CO2 incubator for 4.5 hr, followed by aspiration of the transfection mix, with plates refed using EMEM complete media (supplemented with 10% FBS, 1× Glutamine). 24 hr post-transfection, plates were treated with the appropriate compounds in EMEM complete media, followed by washing once with PBS and addition of 100 μL 1× reporter lysis buffer/well (Promega) 24 hr after treatment. Plates went through one freeze/thaw cycle prior to analysis. Approximately 10 μL of lysate was added to 100 μL of firefly luciferase substrate, mixed by pipetting, and analyzed on a luminometer for 10 s using the integration function (relative luciferase units/RLU) or on a Microbeta Trilux (luciferase counts per second/LCPS). Each treatment was performed in triplicate, and in multiple, separate experiments.

[3] = biological target: T1, Human PPARα LBD fusion protein (Homo sapiens, UniProt Q07869); assay: as above; assay type: cell-based
T1 construct: a.a; 167-468)
T1 sequence (Q07869 167-468): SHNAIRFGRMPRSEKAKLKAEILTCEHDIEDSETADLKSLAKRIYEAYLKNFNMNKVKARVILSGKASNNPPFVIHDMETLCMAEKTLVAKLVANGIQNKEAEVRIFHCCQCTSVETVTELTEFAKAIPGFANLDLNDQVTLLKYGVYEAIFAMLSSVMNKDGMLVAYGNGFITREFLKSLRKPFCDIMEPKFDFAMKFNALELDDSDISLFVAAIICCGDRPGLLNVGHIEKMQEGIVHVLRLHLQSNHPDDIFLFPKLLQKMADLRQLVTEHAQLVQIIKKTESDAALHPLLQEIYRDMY
Experimental: (§1) Cells were seeded in 24 well plates the day prior to transfection at 5×10^4−2×10^5 cells/well, depending upon cell type. Cells were transfected using Lipofectamine 2000 reagent from Invitrogen. A total of 0.8 μg DNA/well was added to 50 μL of Optimem Reduced Serum media (serum free; Gibco). Lipofectamine 2000 was added (2.5 μL/well) to another tube containing 50 μL of Optimem media. Plasmid DNA was added at a ratio of 4:3 (reporter:activator); where appropriate, salmon sperm DNA was substituted for activator expressing plasmid. The reporter plasmid used was pFR-Luc, which has the firefly luciferase gene under the control of a GAL4 UAS ([…]) containing promoter. The activator expressing plasmids contain yeast GAL4 DNA binding domain (dbd) fusion of either human PPARα ligand binding domain (LBD; a.a. 167-468) or human PPARγ LBD (a.a. 176-479). DNA constructs containing the mouse PPARα or PPARγ LBD fused to the GAL4 DNA binding domain were also used. The two solutions were incubated at room temperature for 5 min, and then combined. The combined solution was incubated at room temperature for approximately 30 min. Cells were washed once with PBS, and 100 μL of transfection mix added to each well. Plates were incubated at 37° C. in a 5% CO2 incubator for 4.5 hr, followed by aspiration of the transfection mix, with plates refed using EMEM complete media (supplemented with 10% FBS, 1× Glutamine). 24 hr post-transfection, plates were treated with the appropriate compounds in EMEM complete media, followed by washing once with PBS and addition of 100 μL 1× reporter lysis buffer/well (Promega) 24 hr after treatment. Plates went through one freeze/thaw cycle prior to analysis. Approximately 10 μL of lysate was added to 100 μL of firefly luciferase substrate, mixed by pipetting, and analyzed on a luminometer for 10 s using the integration function (relative luciferase units/RLU) or on a Microbeta Trilux (luciferase counts per second/LCPS). Each treatment was performed in triplicate, and in multiple, separate experiments.

[4] = biological target: T2, Mouse PPARα LBD fusion protein (Mus musculus, UniProt P23204); assay: as above; assay type: cell-based
T2 sequence (P23204 239-466): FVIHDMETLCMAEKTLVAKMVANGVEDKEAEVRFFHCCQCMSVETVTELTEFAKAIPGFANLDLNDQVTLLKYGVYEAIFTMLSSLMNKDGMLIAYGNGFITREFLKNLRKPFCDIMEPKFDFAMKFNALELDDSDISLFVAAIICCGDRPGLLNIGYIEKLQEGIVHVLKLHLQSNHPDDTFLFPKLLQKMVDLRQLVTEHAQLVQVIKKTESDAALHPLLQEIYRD
Experimental: as §1

SMILES: COc1cc(C(=O)CCC(=O)O)ccc1OCc1c(C)cccc1C [BT, 4-[[4-(2,6-Dimethylbenzyloxy)-3-methoxy]phenyl]-4-oxobutyric acid]
Glucose (% of Control) (db/db mice; 107 mg/kg daily oral): 99 ± 9 % of Control
Glucose (db/db mice; 107 mg/kg daily oral): 684.3 ± 63.6 mg/dL
Free Fatty Acids ± SEM (db/db mice): 3897.7 ± 291.3 µM
Triglycerides ± SEM (db/db mice): 211.5 ± 21.5 mg/dL

SMILES: Cc1cccc(C)c1COc1ccccc1 [CA, (2,6-Dimethylbenzyloxy)benzene]
Free Fatty Acids ± SEM [1]: 1572.2 ± 118.0
Triglycerides ± SEM [1]: 92.6 ± 13.7
Glucose [1]: 402.6 ± 61.0 mg/dL
Glucose (% of Control) [1]: 95 ± 14.0 % of Control
Glucose ± SEM [1]: 402.6 ± 61.0

SMILES: COC(=O)CC(=O)c1cccc(OCc2c(C)cccc2C)c1 [CB, Methyl 3-(3-(2,6-Dimethylbenzyloxy)phenyl)-3-oxopropionate]
Free Fatty Acids ± SEM [1]: 2076.2 ± 169.0
Triglycerides ± SEM [1]: 118.8 ± 18.0
Glucose [1]: 494.4 ± 72.3 mg/dL
Glucose (% of Control) [1]: 117.0 ± 17.0 % of Control
Glucose ± SEM [1]: 494.4 ± 72.3

SMILES: Cc1cccc(C)c1COc1cccc(C(C=O)CC(N)=O)c1 (stereo not drawn) [CC, 3-(3-(2,6,-Dimethylbenzyloxy)phenyl)-4-oxobutyramide]
Triglycerides ± SEM [1]: 91.6 ± 13.4
Glucose [1]: 444.4 ± 89.5 mg/dL
Glucose (% of Control) [1]: 105.0 ± 21.0 % of Control
Glucose ± SEM [1]: 444.4 ± 89.5

SMILES: Cc1cccc(C)c1COc1cccc(C(=O)CCCC(=O)O)c1 [CD, 5-(3-(2,6-Dimethylbenzyloxy)phenyl)-5-oxopentanoic acid]
Free Fatty Acids ± SEM [1]: 1961.8 ± 194.2
Triglycerides ± SEM [1]: 119.0 ± 14.2
Glucose [1]: 505.6 ± 63.5 mg/dL
Glucose (% of Control) [1]: 119.0 ± 15.0 % of Control
Glucose ± SEM [1]: 505.6 ± 63.5

SMILES: CC(C)OC(=O)C(C)(C)Oc1ccc(C(=O)c2ccc(Cl)cc2)cc1 [Fenofibrate, reference compound]
Glucose (% of Control) (db/db mice; 113 mg/kg daily oral): 81 ± 7 % of Control
Glucose (db/db mice; 113 mg/kg daily oral): 563.2 ± 49.0 mg/dL
Free Fatty Acids ± SEM (db/db mice): 3318.5 ± 208.7 µM
Triglycerides ± SEM (db/db mice): 109.3 ± 9.1 mg/dL

SMILES: CN(CCOc1ccc(CC2SC(=O)NC2=O)cc1)c1ccccn1 (stereo not drawn) [Rosiglitazone, rosiglitazone, reference compound]
transcription activation potential (luciferase) ± standard deviation ([2]; Table 22b line 1 μM, rosiglitazone at one-fifth the listed concentration (0.2 μM)): 124 ± 33.8 LCPS
transcription activation potential (luciferase) ± standard deviation ([2]; Table 22b line 3 μM, rosiglitazone at one-fifth the listed concentration): 134.8 ± 47.8 LCPS
transcription activation potential (luciferase) ± standard deviation ([2]; Table 22b line 10 μM, rosiglitazone at one-fifth the listed concentration): 626.6 ± 227 LCPS
transcription activation potential (luciferase) ± standard deviation ([2]; Table 22b line 30 μM, rosiglitazone at one-fifth the listed concentration): 887.2 ± 338.2 LCPS
transcription activation potential (luciferase) ± standard deviation ([2]; Table 22b line 100 μM, rosiglitazone at one-fifth the listed concentration): 1034.1 ± 400.5 LCPS

transcription activation potential (luciferase) ± standard deviation ([3]; 1 μM): 181.8 ± 47.6 LCPS
transcription activation potential (luciferase) ± standard deviation ([3]; 3 μM): 153.1 ± 2.8 LCPS
transcription activation potential (luciferase) ± standard deviation ([3]; 10 μM): 315.4 ± 36.5 LCPS
transcription activation potential (luciferase) ± standard deviation ([3]; 30 μM): 648.6 ± 47.5 LCPS
transcription activation potential (luciferase) ± standard deviation ([3]; 100 μM): 412.23 ± 114 LCPS
transcription activation potential (luciferase) ± standard deviation ([4]; 1 μM, Table 20a): 406.73 ± 80.11 LCPS
transcription activation potential (luciferase) ± standard deviation ([4]; 3 μM, Table 20a): 295.8 ± 40.31 LCPS
transcription activation potential (luciferase) ± standard deviation ([4]; 10 μM, Table 20a): 324.37 ± 11.06 LCPS
transcription activation potential (luciferase) ± standard deviation ([4]; 30 μM, Table 20a): 414 ± 122.52 LCPS
transcription activation potential (luciferase) ± standard deviation ([4]; 100 μM, Table 20a): 325.3 ± 91.83 LCPS
transcription activation potential (luciferase) ± standard deviation ([4]; 100 μM, Table 21a): 55972 ± 5162 RLU
transcription activation potential (luciferase) ± standard deviation ([4]; 200 μM, Table 20a): 115.2 ± 21.52 LCPS
SMILES: Cc1cccc(Nc2cc(Cl)nc(SCC(=O)O)n2)c1C [Wy, reference compound]

transcription activation potential (luciferase) ± standard deviation ([4]; 100 μM, Table 21a): 4440 ± 213 RLU
SMILES: CC(C(=O)O)c1cccc(Oc2ccccc2)c1 (stereo not drawn) [fenoprofen, reference compound]
